Patent US8298756B2, “Isolation, gene expression, and chemotherapeutic resistance of motile cancer cells” (Albert Einstein College of Medicine of Yeshiva University, priority 2004, dated 2012)

Columns and labels:
[1] = tested on: MTLn3 cells; details: previous studies (Huigsloot et al., 2002); cited from earlier work
[2] = tested on: invasive cells and general population of carcinoma cells from MTLn3-derived tumors; assay: Cell culture and apoptosis assay (Annexin V-Cy5 / PI) after drug challenge, invasive cells vs general population; format: cell-based, rat; details: for drug tolerance (apoptotic index and cell viability) of invasive cells: as a percentage of all carcinoma cells, invasive vs general population of tumor cells, 24 hr recovery after drug, FIG. 3; for drug induced apoptotic index / cell death: invasive cells compared to carcinoma cells of the whole tumor, doxorobucin 17 μM, cisplatin 50 μM, etoposide 50 μM for 1 hr, 24 hrs recovery; for drug induced apoptotic index: Annexin V-Cy5; for cell death: PI staining
Procedure: The cells collected by the needle collection procedure were subjected to drug challenge using doxorobucin (17 μM), cisplatin (50 μM) or etoposide (50 μM). The apoptotic status and viability of these cells was assessed by staining with propedium iodide (PI) and Annexin V-Cy5. […] The graph represents viability status and apoptotic index of the cells after being challenged by the anticancer drugs. Cell culture and apoptosis assay. The cells extruded from the needles and tumor cells FACS sorted were cultured in DMEM 20% FCS along with streptomycin and penicillin, for 16 hrs. Subsequently, the cells were challenged with either doxorobucin (17 μM) or cisplatin (50 μM) or etoposide (50 μM) for 1 hr, washed and allowed to recover for 24 hrs. The cells were then subjected to an apoptosis assay kit containing Annexin V Cy5 for staining the apoptotic cells and Propedium Iodide (PI) for staining the dead cells (BD Biosciences San Jose, Calif.). After staining the cells using the manufacturer's protocol, the cells were observed under a fluorescent microscope in the green, red and high red channel for GFP, PI and Cy5 respectively. The total number of GFP cells counted was compared to the number of PI positive and Annexin V-Cy5 positive cells. […] We challenged the invasive cells with three most commonly used anticancer drugs, doxorobucin, cisplatin and etoposide. […] We performed these studies on the invasive and general populations of cells from MTLn3-derived tumors. After treatment with the drugs the cells were allowed to recover for 24 hr. Subsequently, the apoptotic index and cell viability was measured as described in the Methods section.

N.N.[Cl][Pt][Cl] [cisplatin]
induction of apoptosis [1]: induce apoptosis | drug tolerance (apoptotic index and cell viability) of invasive cells [2]: invasive cells are able to tolerate all three drugs better than the general population of tumor cells | drug induced apoptotic index [2]: lower drug induced apoptotic index | cell death [2]: lower cell death

COc1cccc2c1C(=O)c1c(O)c3c(c(O)c1C2=O)C[C@@](O)(C(=O)CO)C[C@@H]3O[C@H]1C[C@H](N)[C@H](O)[C@H](C)O1 [doxorubicin]
induction of apoptosis [1]: induce apoptosis | drug tolerance (apoptotic index and cell viability) of invasive cells [2]: invasive cells are able to tolerate all three drugs better than the general population of tumor cells | drug induced apoptotic index [2]: lower drug induced apoptotic index | cell death [2]: lower cell death

COc1cc([C@@H]2c3cc4c(cc3[C@@H](O[C@@H]3O[C@@H]5CO[C@@H](C)O[C@H]5[C@H](O)[C@H]3O)[C@H]3COC(=O)[C@H]23)OCO4)cc(OC)c1O [etoposide]
induction of apoptosis [1]: induce apoptosis | drug tolerance (apoptotic index and cell viability) of invasive cells [2]: invasive cells are able to tolerate all three drugs better than the general population of tumor cells | drug induced apoptotic index [2]: lower drug induced apoptotic index | cell death [2]: lower cell death
